Measured values from article PMC6009956, “Design, synthesis and biological activity of N^4-phenylsubstituted-7H-pyrrolo[2,3-d]pyrimidin-4-amines as dual inhibitors of aurora kinase A and epidermal growth factor receptor kinase” (Journal of Enzyme Inhibition and Medicinal Chemistry, 2017).
Like-named read-outs stand apart in the source and are kept apart here.

What was measured:
[1] = molecular target: T1, aurora A kinase (AURKA) (Homo sapiens, UniProt O14965); test: ADP-Glo kinase assay, Aurora A; format: biochemical
T1 construct: purchased BPS Bioscience (assay run externally by the vendor)
T1 sequence (O14965 1-403): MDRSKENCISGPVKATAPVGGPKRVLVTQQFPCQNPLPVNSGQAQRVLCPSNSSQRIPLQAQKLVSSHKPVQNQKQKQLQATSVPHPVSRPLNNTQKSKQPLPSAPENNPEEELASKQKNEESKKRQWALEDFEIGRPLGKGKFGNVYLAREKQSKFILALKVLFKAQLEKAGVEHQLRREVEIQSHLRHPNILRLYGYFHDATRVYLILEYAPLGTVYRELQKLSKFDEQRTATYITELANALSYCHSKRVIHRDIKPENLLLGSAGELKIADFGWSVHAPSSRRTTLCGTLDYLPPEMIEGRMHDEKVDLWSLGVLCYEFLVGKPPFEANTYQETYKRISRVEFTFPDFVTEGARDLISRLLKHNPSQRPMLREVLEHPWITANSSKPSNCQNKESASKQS

[2] = molecular target: EGFR (Homo sapiens, UniProt P00533); test: ADP-Glo kinase assay, EGFR; format: biochemical; set-up: purchased BPS Bioscience (assay run externally by the vendor)
[3] = 10 µM ATP, triplicate, read-out: AURKA IC50 ± SD
[4] = 10 µM ATP/0.2 mg/ml Kemptide, read-out: Aurora A IC50 (dose-response curve, supplement)
[5] = 10 µM ATP, triplicate, read-out: EGFR IC50 ± SD
[6] = 10 µM ATP/0.2 mg/ml Poly-Glu-Tyr, read-out: EGFR IC50 (dose-response curve, supplement)

Chain of EGFR (P00533 25-1210): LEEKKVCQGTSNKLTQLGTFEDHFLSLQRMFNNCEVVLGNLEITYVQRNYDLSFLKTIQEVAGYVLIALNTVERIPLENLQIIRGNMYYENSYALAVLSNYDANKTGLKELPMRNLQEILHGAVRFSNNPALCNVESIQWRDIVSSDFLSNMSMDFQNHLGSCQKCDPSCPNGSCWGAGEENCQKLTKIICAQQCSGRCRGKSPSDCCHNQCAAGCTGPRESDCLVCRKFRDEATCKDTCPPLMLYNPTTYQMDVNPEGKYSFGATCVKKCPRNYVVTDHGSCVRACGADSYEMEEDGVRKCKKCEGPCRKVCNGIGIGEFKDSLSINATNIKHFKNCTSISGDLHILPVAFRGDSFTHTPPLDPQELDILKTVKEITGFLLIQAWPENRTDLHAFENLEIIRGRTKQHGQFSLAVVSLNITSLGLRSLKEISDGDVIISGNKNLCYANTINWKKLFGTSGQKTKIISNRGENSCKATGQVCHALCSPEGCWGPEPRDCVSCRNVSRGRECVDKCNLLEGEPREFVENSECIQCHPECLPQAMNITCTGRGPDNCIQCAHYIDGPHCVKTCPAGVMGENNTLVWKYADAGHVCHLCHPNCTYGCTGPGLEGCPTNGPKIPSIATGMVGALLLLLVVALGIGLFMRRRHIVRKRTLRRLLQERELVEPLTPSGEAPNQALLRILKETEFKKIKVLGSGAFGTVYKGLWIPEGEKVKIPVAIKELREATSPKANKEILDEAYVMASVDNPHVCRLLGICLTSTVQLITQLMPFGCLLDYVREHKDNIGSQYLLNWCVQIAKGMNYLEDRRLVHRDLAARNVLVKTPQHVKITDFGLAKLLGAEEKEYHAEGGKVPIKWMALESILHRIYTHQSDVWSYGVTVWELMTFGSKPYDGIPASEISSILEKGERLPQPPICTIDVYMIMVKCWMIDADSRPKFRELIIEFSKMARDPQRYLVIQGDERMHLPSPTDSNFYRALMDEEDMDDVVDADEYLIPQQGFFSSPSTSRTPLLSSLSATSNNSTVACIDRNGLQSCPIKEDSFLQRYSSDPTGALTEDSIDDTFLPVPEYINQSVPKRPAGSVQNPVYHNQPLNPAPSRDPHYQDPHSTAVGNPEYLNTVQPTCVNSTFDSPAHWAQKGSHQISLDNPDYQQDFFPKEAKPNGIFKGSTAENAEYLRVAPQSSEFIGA

SMILES: c1ccc(Nc2ncnc3[nH]ccc23)cc1 [Compound 1, N^4-phenyl-7H-pyrrolo[2,3-d]pyrimidine-4-amine]
- IC50 [1, 3]: 5.58 ± 0.66 µM
- IC50 [1, 4]: 5.6 µM
- Aurora A % Activity Set1 ([1]; Log[nM] 0): 91%
- Aurora A % Activity Set2 ([1]; Log[nM] 0): 91%
- Aurora A % Activity Set3 ([1]; Log[nM] 0): 92%
- Aurora A % Activity Set1 ([1]; Log[nM] 1.0): 87%
- Aurora A % Activity Set2 ([1]; Log[nM] 1.0): 90%
- Aurora A % Activity Set3 ([1]; Log[nM] 1.0): 91%
- Aurora A % Activity Set1 ([1]; Log[nM] 1.5): 93%
- Aurora A % Activity Set2 ([1]; Log[nM] 1.5): 98%
- Aurora A % Activity Set3 ([1]; Log[nM] 1.5): 100%
- Aurora A % Activity Set1 ([1]; Log[nM] 2.0): 96%
- Aurora A % Activity Set2 ([1]; Log[nM] 2.0): 97%
- Aurora A % Activity Set3 ([1]; Log[nM] 2.0): 100%
- Aurora A % Activity Set1 ([1]; Log[nM] 2.5): 99%
- Aurora A % Activity Set2 ([1]; Log[nM] 2.5): 103%
- Aurora A % Activity Set3 ([1]; Log[nM] 2.5): 104%
- Aurora A % Activity Set1 ([1]; Log[nM] 3.0): 86%
- Aurora A % Activity Set2 ([1]; Log[nM] 3.0): 90%
- Aurora A % Activity Set3 ([1]; Log[nM] 3.0): 93%
- Aurora A % Activity Set1 ([1]; Log[nM] 3.5): 63%
- Aurora A % Activity Set2 ([1]; Log[nM] 3.5): 70%
- Aurora A % Activity Set3 ([1]; Log[nM] 3.5): 70%
- Aurora A % Activity Set1 ([1]; Log[nM] 4.0): 28%
- Aurora A % Activity Set2 ([1]; Log[nM] 4.0): 31%
- Aurora A % Activity Set3 ([1]; Log[nM] 4.0): 32%
- Aurora A % Activity Set1 ([1]; Log[nM] 4.5): 11%
- Aurora A % Activity Set2 ([1]; Log[nM] 4.5): 12%
- Aurora A % Activity Set3 ([1]; Log[nM] 4.5): 13%
- Aurora A % Activity Set1 ([1]; Log[nM] 5.0): 5%
- Aurora A % Activity Set2 ([1]; Log[nM] 5.0): 5%
- Aurora A % Activity Set3 ([1]; Log[nM] 5.0): 5%
- IC50 [2, 5]: 0.254 ± 0.026 µM
- IC50 [2, 6]: 0.253 µM
- EGFR % Activity Set1 ([2]; Log[nM] 0): 103%
- EGFR % Activity Set2 ([2]; Log[nM] 0): 98%
- EGFR % Activity Set3 ([2]; Log[nM] 0): 103%
- EGFR % Activity Set1 ([2]; Log[nM] 1.0): 101%
- EGFR % Activity Set2 ([2]; Log[nM] 1.0): 110%
- EGFR % Activity Set3 ([2]; Log[nM] 1.0): 106%
- EGFR % Activity Set1 ([2]; Log[nM] 1.5): 92%
- EGFR % Activity Set2 ([2]; Log[nM] 1.5): 91%
- EGFR % Activity Set3 ([2]; Log[nM] 1.5): 94%
- EGFR % Activity Set1 ([2]; Log[nM] 2.0): 66%
- EGFR % Activity Set2 ([2]; Log[nM] 2.0): 71%
- EGFR % Activity Set3 ([2]; Log[nM] 2.0): 76%
- EGFR % Activity Set1 ([2]; Log[nM] 2.5): 39%
- EGFR % Activity Set2 ([2]; Log[nM] 2.5): 42%
- EGFR % Activity Set3 ([2]; Log[nM] 2.5): 40%
- EGFR % Activity Set1 ([2]; Log[nM] 3.0): 24%
- EGFR % Activity Set2 ([2]; Log[nM] 3.0): 22%
- EGFR % Activity Set3 ([2]; Log[nM] 3.0): 22%
- EGFR % Activity Set1 ([2]; Log[nM] 3.5): 9%
- EGFR % Activity Set2 ([2]; Log[nM] 3.5): 9%
- EGFR % Activity Set3 ([2]; Log[nM] 3.5): 9%
- EGFR % Activity Set1 ([2]; Log[nM] 4.0): 4%
- EGFR % Activity Set2 ([2]; Log[nM] 4.0): 5%
- EGFR % Activity Set3 ([2]; Log[nM] 4.0): 5%
- EGFR % Activity Set1 ([2]; Log[nM] 4.5): 2%
- EGFR % Activity Set2 ([2]; Log[nM] 4.5): 2%
- EGFR % Activity Set3 ([2]; Log[nM] 4.5): 2%
- EGFR % Activity Set1 ([2]; Log[nM] 5.0): 1%
- EGFR % Activity Set2 ([2]; Log[nM] 5.0): 1%
- EGFR % Activity Set3 ([2]; Log[nM] 5.0): 1%

SMILES: Cc1ccc(Nc2ncnc3[nH]ccc23)cc1 [Compound 9, N^4-(4-methylphenyl)-7H-pyrrolo[2,3-d]pyrimidin-4-amine]
- IC50 [1, 3]: 5.45 ± 0.36 µM
- IC50 [1, 4]: 5.4 µM
- Aurora A % Activity Set1 ([1]; Log[nM] 0): 101%
- Aurora A % Activity Set2 ([1]; Log[nM] 0): 103%
- Aurora A % Activity Set3 ([1]; Log[nM] 0): 105%
- Aurora A % Activity Set1 ([1]; Log[nM] 1.0): 114%
- Aurora A % Activity Set2 ([1]; Log[nM] 1.0): 103%
- Aurora A % Activity Set3 ([1]; Log[nM] 1.0): 107%
- Aurora A % Activity Set1 ([1]; Log[nM] 1.5): 111%
- Aurora A % Activity Set2 ([1]; Log[nM] 1.5): 103%
- Aurora A % Activity Set3 ([1]; Log[nM] 1.5): 109%
- Aurora A % Activity Set1 ([1]; Log[nM] 2.0): 102%
- Aurora A % Activity Set2 ([1]; Log[nM] 2.0): 107%
- Aurora A % Activity Set3 ([1]; Log[nM] 2.0): 114%
- Aurora A % Activity Set1 ([1]; Log[nM] 2.5): 99%
- Aurora A % Activity Set2 ([1]; Log[nM] 2.5): 102%
- Aurora A % Activity Set3 ([1]; Log[nM] 2.5): 110%
- Aurora A % Activity Set1 ([1]; Log[nM] 3.0): 87%
- Aurora A % Activity Set2 ([1]; Log[nM] 3.0): 90%
- Aurora A % Activity Set3 ([1]; Log[nM] 3.0): 91%
- Aurora A % Activity Set1 ([1]; Log[nM] 3.5): 63%
- Aurora A % Activity Set2 ([1]; Log[nM] 3.5): 66%
- Aurora A % Activity Set3 ([1]; Log[nM] 3.5): 61%
- Aurora A % Activity Set1 ([1]; Log[nM] 4.0): 32%
- Aurora A % Activity Set2 ([1]; Log[nM] 4.0): 29%
- Aurora A % Activity Set3 ([1]; Log[nM] 4.0): 30%
- Aurora A % Activity Set1 ([1]; Log[nM] 4.5): 16%
- Aurora A % Activity Set2 ([1]; Log[nM] 4.5): 15%
- Aurora A % Activity Set3 ([1]; Log[nM] 4.5): 13%
- Aurora A % Activity Set1 ([1]; Log[nM] 5.0): 9%
- Aurora A % Activity Set2 ([1]; Log[nM] 5.0): 9%
- Aurora A % Activity Set3 ([1]; Log[nM] 5.0): 9%
- IC50 [2, 5]: 0.667 ± 0.142 µM
- IC50 [2, 6]: 0.693 µM
- EGFR % Activity Set1 ([2]; Log[nM] 0): 103%
- EGFR % Activity Set2 ([2]; Log[nM] 0): 98%
- EGFR % Activity Set3 ([2]; Log[nM] 0): 105%
- EGFR % Activity Set1 ([2]; Log[nM] 1.0): 112%
- EGFR % Activity Set2 ([2]; Log[nM] 1.0): 109%
- EGFR % Activity Set3 ([2]; Log[nM] 1.0): 103%
- EGFR % Activity Set1 ([2]; Log[nM] 1.5): 113%
- EGFR % Activity Set2 ([2]; Log[nM] 1.5): 108%
- EGFR % Activity Set3 ([2]; Log[nM] 1.5): 95%
- EGFR % Activity Set1 ([2]; Log[nM] 2.0): 95%
- EGFR % Activity Set2 ([2]; Log[nM] 2.0): 88%
- EGFR % Activity Set3 ([2]; Log[nM] 2.0): 81%
- EGFR % Activity Set1 ([2]; Log[nM] 2.5): 74%
- EGFR % Activity Set2 ([2]; Log[nM] 2.5): 63%
- EGFR % Activity Set3 ([2]; Log[nM] 2.5): 67%
- EGFR % Activity Set1 ([2]; Log[nM] 3.0): 36%
- EGFR % Activity Set2 ([2]; Log[nM] 3.0): 35%
- EGFR % Activity Set3 ([2]; Log[nM] 3.0): 43%
- EGFR % Activity Set1 ([2]; Log[nM] 3.5): 18%
- EGFR % Activity Set2 ([2]; Log[nM] 3.5): 16%
- EGFR % Activity Set3 ([2]; Log[nM] 3.5): 23%
- EGFR % Activity Set1 ([2]; Log[nM] 4.0): 8%
- EGFR % Activity Set2 ([2]; Log[nM] 4.0): 7%
- EGFR % Activity Set3 ([2]; Log[nM] 4.0): 10%
- EGFR % Activity Set1 ([2]; Log[nM] 4.5): 3%
- EGFR % Activity Set2 ([2]; Log[nM] 4.5): 4%
- EGFR % Activity Set3 ([2]; Log[nM] 4.5): 3%
- EGFR % Activity Set1 ([2]; Log[nM] 5.0): 1%
- EGFR % Activity Set2 ([2]; Log[nM] 5.0): 1%
- EGFR % Activity Set3 ([2]; Log[nM] 5.0): 2%
